Experimental data as given in patent US20250213448A1, “COMPOSITION FOR PROTECTING SKIN CONTAINING A THYMOL ESTER-BASED COMPOUND” (Amorepacific Corporation, priority 2024, published 2025).

Tested on: Normal human epidermal melanocytes
Assay: Damage inhibition experiment using normal human melanocytes (UVB photoaging, real-time PCR gene expression)
Assay type: cell-based
Procedure: Melanocytes isolated from normal human skin (Normal human epidermal melanocytes) were treated with ultraviolet B (312 nm) at 20 mJ each, once a day, for two days, and cultured for one month. Melasolv was dissolved in DMSO at 1000×, irradiated with ultraviolet rays, and then immediately placed in a culture medium at 1 and 5 ppm and treated. The cells were grown in a 37° C., 5% CO2 incubator while changing the culture medium containing the experimental material every two days. After the experiment was completed, the cells were dissolved in TRIzol and collected, and total RNA was isolated. Then, cDNA was synthesized therefrom and real-time PCR was performed to compare the relative expression levels of each gene. The RNA was quantified and the same amount of RNA was added to each experimental group, and the expression of each gene was corrected by the expression of GAPDH, a house-keeping gene, to compare the relative expression levels.
The gene primers used were purchased from APPLIED BIOSYSTEMS as follows: […]

`COc1cc(/C=C/C(=O)Oc2cc(C)ccc2C(C)C)cc(OC)c1OC` [Melasolv, (5-methyl-2-propan-2-ylphenyl) (E)-3-(3,4,5-trimethoxyphenyl) prop-2-enoate] was tested, and the “expression of the XPA gene” value (UVB-photoaged melanocytes, 5 ppm of Melasolv, compared with control group, FIG. 4) was “increased even higher than that of the control group”, the “expression of aging genes (p16, p21)” value (melanocytes irradiated with UVB (312 nm, 20 mJ, once a day for two days), cultured one month, Melasolv at 1 and 5 ppm, real-time PCR corrected by GAPDH, FIGS. 1 and 2) was “inhibited in a concentration-dependent manner” and the “expression of DNA repair genes (APEX1, XPA, RPA1) that had decreased due to photoaging” value (melanocytes irradiated with UVB (312 nm, 20 mJ, once a day for two days), cultured one month, Melasolv at 1 and 5 ppm, real-time PCR corrected by GAPDH, FIGS. 3 to 5) was “increased”.
